# Measurements published in paper PMC10931833, “Simultaneous Purification of Human Interferon Alpha-2b and Serum Albumin Using Bioprivileged Fluorinated Ionic Liquid-Based Aqueous Biphasic Systems” (International Journal of Molecular Sciences, 2024).
# What was measured:
# [1] = molecular target: T1, BSA (Bos taurus, UniProt P02769); test: Far-UV CD secondary structure of BSA (CONTIN-LL deconvolution); assay type: physicochemical, bovine; set-up: Regular Alpha Helix / Distorted Alpha Helix / Regular Beta Sheet / Distorted Beta Sheet / Turns / Unordered: unit not given here; settings: 1.0 mg/mL BSA, 25 °C
# T1 construct: purchased Millipore Sigma-Aldrich
# In short: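 Far-UV CD spectra (190–260 nm) of BSA at 1 mg/mL with solvent at 0.1 to 200 mM, 10 mm cuvette, room temperature, 50 nm/min, 4 accumulations, duplicates combined. Converted to MRE; secondary structure deconvoluted by CONTIN-LL with SMP180 reference set.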
# [2] = molecular target: T1, BSA; test: DSC thermal unfolding of BSA in water and aqueous solutions of ABS phase-forming components; assay type: physicochemical, bovine; settings: for Tm / ΔG / ΔHcal / ΔHcal/ΔHvH / ΔHvH / ΔS: 1.0 mg/mL BSA
# In short: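 T m and unfolding enthalpy (ΔH) of BSA were taken from heat capacity versus temperature scans by nano DSC. BSA was scanned in water and with increasing concentrations of each ABS phase-forming component. T m is the midpoint of the thermal unfolding transition.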
# T1 sequence (P02769 25-607): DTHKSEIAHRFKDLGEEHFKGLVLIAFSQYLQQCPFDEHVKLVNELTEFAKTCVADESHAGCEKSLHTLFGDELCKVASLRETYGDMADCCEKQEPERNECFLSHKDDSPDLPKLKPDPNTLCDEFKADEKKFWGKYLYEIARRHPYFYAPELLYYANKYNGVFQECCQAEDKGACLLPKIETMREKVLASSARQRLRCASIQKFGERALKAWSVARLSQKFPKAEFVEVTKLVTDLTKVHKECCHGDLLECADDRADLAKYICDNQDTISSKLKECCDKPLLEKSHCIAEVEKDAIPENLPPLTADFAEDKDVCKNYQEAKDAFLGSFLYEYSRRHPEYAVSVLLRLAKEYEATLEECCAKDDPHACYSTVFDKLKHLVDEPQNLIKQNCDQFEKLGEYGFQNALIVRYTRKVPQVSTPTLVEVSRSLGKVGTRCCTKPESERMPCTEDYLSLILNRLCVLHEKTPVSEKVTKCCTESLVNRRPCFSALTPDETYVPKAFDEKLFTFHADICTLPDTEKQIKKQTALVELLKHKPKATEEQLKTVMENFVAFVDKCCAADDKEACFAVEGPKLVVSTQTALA
compound,measurement,setting,value
"C[N+](C)(C)CCO.O=S(=O)([O-])C(F)(F)C(F)(F)C(F)(F)C(F)(F)F [[N1112(OH)][C4F9SO3], (2-hydroxyethyl)trimethylammonium perfluorobutane sulfonate]",Distorted Alpha Helix,[1]; 0.1 mM component,0.214
same,Distorted Beta Sheet,[1]; 0.1 mM component,0.025
same,Regular Alpha Helix,[1]; 0.1 mM component,0.418
same,Regular Beta Sheet,[1]; 0.1 mM component,0.000
same,Turns,[1]; 0.1 mM component,0.138
same,Unordered,[1]; 0.1 mM component,0.205
same,Distorted Alpha Helix,[1]; 1 mM component,0.225
same,Distorted Beta Sheet,[1]; 1 mM component,0.024
same,Regular Alpha Helix,[1]; 1 mM component,0.428
same,Regular Beta Sheet,[1]; 1 mM component,0.000
same,Turns,[1]; 1 mM component,0.138
same,Unordered,[1]; 1 mM component,0.185
same,Distorted Alpha Helix,[1]; 5 mM component,0.222
same,Distorted Beta Sheet,[1]; 5 mM component,0.025
same,Regular Alpha Helix,[1]; 5 mM component,0.423
same,Regular Beta Sheet,[1]; 5 mM component,0.000
same,Turns,[1]; 5 mM component,0.139
same,Unordered,[1]; 5 mM component,0.192
same,Distorted Alpha Helix,[1]; 25 mM component,0.215
same,Distorted Beta Sheet,[1]; 25 mM component,0.025
same,Regular Alpha Helix,[1]; 25 mM component,0.406
same,Regular Beta Sheet,[1]; 25 mM component,0.000
same,Turns,[1]; 25 mM component,0.140
same,Unordered,[1]; 25 mM component,0.214
same,Distorted Alpha Helix,[1]; 55 mM component,0.208
same,Distorted Beta Sheet,[1]; 55 mM component,0.027
same,Regular Alpha Helix,[1]; 55 mM component,0.392
same,Regular Beta Sheet,[1]; 55 mM component,0.000
same,Turns,[1]; 55 mM component,0.144
same,Unordered,[1]; 55 mM component,0.228
same,Distorted Alpha Helix,[1]; 90 mM component,0.199
same,Distorted Beta Sheet,[1]; 90 mM component,0.036
same,Regular Alpha Helix,[1]; 90 mM component,0.376
same,Regular Beta Sheet,[1]; 90 mM component,0.022
same,Turns,[1]; 90 mM component,0.152
same,Unordered,[1]; 90 mM component,0.215
same,Distorted Alpha Helix,[1]; 120 mM component,0.205
same,Distorted Beta Sheet,[1]; 120 mM component,0.032
same,Regular Alpha Helix,[1]; 120 mM component,0.400
same,Regular Beta Sheet,[1]; 120 mM component,0.012
same,Turns,[1]; 120 mM component,0.147
same,Unordered,[1]; 120 mM component,0.203
same,Distorted Alpha Helix,[1]; 200 mM component,0.207
same,Distorted Beta Sheet,[1]; 200 mM component,0.032
same,Regular Alpha Helix,[1]; 200 mM component,0.406
same,Regular Beta Sheet,[1]; 200 mM component,0.017
same,Turns,[1]; 200 mM component,0.147
same,Unordered,[1]; 200 mM component,0.191
same,Tm,[2]; 0.1 mM component,79.77 °C
same,ΔG,[2]; 0.1 mM component,22.44 kcal/mol
same,ΔHcal,[2]; 0.1 mM component,144.1 kcal/mol
same,ΔHcal/ΔHvH,[2]; 0.1 mM component,1.064
same,ΔHvH,[2]; 0.1 mM component,135.5 kcal/mol
same,ΔS,[2]; 0.1 mM component,1.708 KJ/(mol.K)
same,Tm,[2]; 1 mM component,80.57 °C
same,ΔG,[2]; 1 mM component,22.08 kcal/mol
same,ΔHcal,[2]; 1 mM component,138.2 kcal/mol
same,ΔHcal/ΔHvH,[2]; 1 mM component,0.921
same,ΔHvH,[2]; 1 mM component,150 kcal/mol
same,ΔS,[2]; 1 mM component,1.629 KJ/(mol.K)
same,Tm,[2]; 5 mM component,79.79 °C
same,ΔG,[2]; 5 mM component,26.41 kcal/mol
same,ΔHcal,[2]; 5 mM component,169.4 kcal/mol
same,ΔHcal/ΔHvH,[2]; 5 mM component,0.884
same,ΔHvH,[2]; 5 mM component,191.5 kcal/mol
same,ΔS,[2]; 5 mM component,2.007 KJ/(mol.K)
same,Tm,[2]; 10 mM component,82.78 °C
same,ΔG,[2]; 10 mM component,32.27 kcal/mol
same,ΔHcal,[2]; 10 mM component,197.9 kcal/mol
same,ΔHcal/ΔHvH,[2]; 10 mM component,1.156
same,ΔHvH,[2]; 10 mM component,171.3 kcal/mol
same,ΔS,[2]; 10 mM component,2.325 KJ/(mol.K)
same,Tm,[2]; 25 mM component,84.18 °C
same,ΔG,[2]; 25 mM component,30.31 kcal/mol
same,ΔHcal,[2]; 25 mM component,182 kcal/mol
same,ΔHcal/ΔHvH,[2]; 25 mM component,1.019
same,ΔHvH,[2]; 25 mM component,178.6 kcal/mol
same,ΔS,[2]; 25 mM component,2.128 KJ/(mol.K)
same,Tm,[2]; 55 mM component,86.11 °C
same,ΔG,[2]; 55 mM component,31.57 kcal/mol
same,ΔHcal,[2]; 55 mM component,184.7 kcal/mol
same,ΔHcal/ΔHvH,[2]; 55 mM component,0.929
same,ΔHvH,[2]; 55 mM component,198.7 kcal/mol
same,ΔS,[2]; 55 mM component,2.149 KJ/(mol.K)
same,Tm,[2]; 200 mM component,87.23 °C
same,ΔG,[2]; 200 mM component,28.51 kcal/mol
same,ΔHcal,[2]; 200 mM component,167.9 kcal/mol
same,ΔHcal/ΔHvH,[2]; 200 mM component,1.024
same,ΔHvH,[2]; 200 mM component,163.9 kcal/mol
same,ΔS,[2]; 200 mM component,1.956 KJ/(mol.K)
same,increase of BSA Tm (DSC),[2]; FIL at the highest concentration (120 mM) vs water,~12 °C
"CCCCn1cc[n+](C)c1.O=S(=O)([O-])C(F)(F)F [[C4C1Im][CF3SO3], 1-butyl-3-methylimidazolium trifluoromethanesulfonate]",Distorted Alpha Helix,[1]; 0.1 mM component,0.207
same,Distorted Beta Sheet,[1]; 0.1 mM component,0.028
same,Regular Alpha Helix,[1]; 0.1 mM component,0.403
same,Regular Beta Sheet,[1]; 0.1 mM component,0.008
same,Turns,[1]; 0.1 mM component,0.141
same,Unordered,[1]; 0.1 mM component,0.212
same,Distorted Alpha Helix,[1]; 1 mM component,0.215
same,Distorted Beta Sheet,[1]; 1 mM component,0.023
same,Regular Alpha Helix,[1]; 1 mM component,0.419
same,Regular Beta Sheet,[1]; 1 mM component,0.000
same,Turns,[1]; 1 mM component,0.135
same,Unordered,[1]; 1 mM component,0.208
same,Distorted Alpha Helix,[1]; 5 mM component,0.209
same,Distorted Beta Sheet,[1]; 5 mM component,0.025
same,Regular Alpha Helix,[1]; 5 mM component,0.403
same,Regular Beta Sheet,[1]; 5 mM component,0.000
same,Turns,[1]; 5 mM component,0.136
same,Unordered,[1]; 5 mM component,0.227
same,Distorted Alpha Helix,[1]; 25 mM component,0.180
same,Distorted Beta Sheet,[1]; 25 mM component,0.031
same,Regular Alpha Helix,[1]; 25 mM component,0.297
same,Regular Beta Sheet,[1]; 25 mM component,0.020
same,Turns,[1]; 25 mM component,0.128
same,Unordered,[1]; 25 mM component,0.344
same,Distorted Alpha Helix,[1]; 55 mM component,0.217
same,Distorted Beta Sheet,[1]; 55 mM component,0.021
same,Regular Alpha Helix,[1]; 55 mM component,0.390
same,Regular Beta Sheet,[1]; 55 mM component,0.000
same,Turns,[1]; 55 mM component,0.131
same,Unordered,[1]; 55 mM component,0.240
same,Distorted Alpha Helix,[1]; 90 mM component,0.202
same,Distorted Beta Sheet,[1]; 90 mM component,0.026
same,Regular Alpha Helix,[1]; 90 mM component,0.382
same,Regular Beta Sheet,[1]; 90 mM component,0.007
same,Turns,[1]; 90 mM component,0.136
same,Unordered,[1]; 90 mM component,0.247
same,Distorted Alpha Helix,[1]; 120 mM component,0.212
same,Distorted Beta Sheet,[1]; 120 mM component,0.019
same,Regular Alpha Helix,[1]; 120 mM component,0.378
same,Regular Beta Sheet,[1]; 120 mM component,0.000
same,Turns,[1]; 120 mM component,0.126
same,Unordered,[1]; 120 mM component,0.266
same,Distorted Alpha Helix,[1]; 200 mM component,0.223
same,Distorted Beta Sheet,[1]; 200 mM component,0.024
same,Regular Alpha Helix,[1]; 200 mM component,0.411
same,Regular Beta Sheet,[1]; 200 mM component,0.000
same,Turns,[1]; 200 mM component,0.136
same,Unordered,[1]; 200 mM component,0.206
same,Tm,[2]; 0.1 mM component,74.54 °C
same,ΔG,[2]; 0.1 mM component,17.42 kcal/mol
same,ΔHcal,[2]; 0.1 mM component,122.6 kcal/mol
same,ΔHcal/ΔHvH,[2]; 0.1 mM component,0.946
same,ΔHvH,[2]; 0.1 mM component,129.6 kcal/mol
same,ΔS,[2]; 0.1 mM component,1.476 KJ/(mol.K)
same,Tm,[2]; 1 mM component,75.31 °C
same,ΔG,[2]; 1 mM component,14.67 kcal/mol
same,ΔHcal,[2]; 1 mM component,100.9 kcal/mol
same,ΔHcal/ΔHvH,[2]; 1 mM component,0.987
same,ΔHvH,[2]; 1 mM component,102.2 kcal/mol
same,ΔS,[2]; 1 mM component,1.210 KJ/(mol.K)
same,Tm,[2]; 5 mM component,81.43 °C
same,ΔG,[2]; 5 mM component,27.34 kcal/mol
same,ΔHcal,[2]; 5 mM component,171.4 kcal/mol
same,ΔHcal/ΔHvH,[2]; 5 mM component,1.069
same,ΔHvH,[2]; 5 mM component,160.3 kcal/mol
same,ΔS,[2]; 5 mM component,2.021 KJ/(mol.K)
same,Tm,[2]; 10 mM component,79.02 °C
same,ΔG,[2]; 10 mM component,19.07 kcal/mol
same,ΔHcal,[2]; 10 mM component,123.7 kcal/mol
same,ΔHcal/ΔHvH,[2]; 10 mM component,1.024
same,ΔHvH,[2]; 10 mM component,120.7 kcal/mol
same,ΔS,[2]; 10 mM component,1.468 KJ/(mol.K)
same,Tm,[2]; 25 mM component,72.02 °C
same,ΔG,[2]; 25 mM component,11.14 kcal/mol
same,ΔHcal,[2]; 25 mM component,80.45 kcal/mol
same,ΔHcal/ΔHvH,[2]; 25 mM component,0.992
same,ΔHvH,[2]; 25 mM component,81.09 kcal/mol
same,ΔS,[2]; 25 mM component,0.973 KJ/(mol.K)
same,Tm,[2]; 55 mM component,72.44 °C
same,ΔG,[2]; 55 mM component,12.4 kcal/mol
same,ΔHcal,[2]; 55 mM component,89.82 kcal/mol
same,ΔHcal/ΔHvH,[2]; 55 mM component,0.960
same,ΔHvH,[2]; 55 mM component,93.55 kcal/mol
same,ΔS,[2]; 55 mM component,1.086 KJ/(mol.K)
same,Tm,[2]; 120 mM component,76.32 °C
same,ΔG,[2]; 120 mM component,16.9 kcal/mol
same,ΔHcal,[2]; 120 mM component,114 kcal/mol
same,ΔHcal/ΔHvH,[2]; 120 mM component,0.969
same,ΔHvH,[2]; 120 mM component,117.7 kcal/mol
same,ΔS,[2]; 120 mM component,1.363 KJ/(mol.K)
same,effect on BSA Tm (DSC),[2]; tested concentration range vs water,maintained
